Data on 5 compounds can be found in ChEMBL document CHEMBL4152370, “Identification of N-(5-(phenoxymethyl)-1,3,4-thiadiazol-2-yl)acetamide derivatives as novel protein tyrosine phosphatase epsilon inhibitors exhibiting anti-osteoclastic activity” (Bioorg Med Chem, 2018).

Data set [1] addresses T1, Receptor-type tyrosine-protein phosphatase epsilon (Homo sapiens, UniProt P23469). The experiment in a line: Inhibition of recombinant human cytosolic PTPepsilon expressed in Escherichia coli BL21 (DE3) using E527-P-Q-pY530-Q-P-G-E-N-L536 as substrate after 60 mins by malachite green assay.
The test system of the next data set is Monocyte. The experiment in a line: Inhibition of RANKL-induced human monocytes differentiation into osteoclasts after 4 days in presence of M-CSF by tartrate-resistant acid phosphatase staining based assay. It is filed as functional, cell-based.
The subject of data set [2] is Osteoclast. Nature of the data set: Cytotoxicity against human monocyte-derived osteoclasts assessed as effect on cell viability at 2 to 17 uM by formazan-based spectrometric method.
The target in data set [3] is T1, Receptor-type tyrosine-protein phosphatase epsilon. Nature of the data set: Inhibition of cytosolic PTPepsilon in human monocyte-derived osteoclasts assessed as disruption of podosome organization at 17 uM after 4 days in presence of M-CSF/RANKL by DAPI staining-based immunofluorescence assay.
Data set [4] deals with Osteoclast. The experiment in a line: Effect on relative level of total c-Src/beta-actin in human monocyte-derived osteoclasts at 17 uM after 15 mins in presence of M-CSF/RANKL by Western blot method relative to control. To be noted: 0.25 h. Type of data set: cell-based.
Data set [5] concerns the target T1, Receptor-type tyrosine-protein phosphatase epsilon. Nature of the data set: Inhibition of cytosolic PTPepsilon in human monocyte-derived osteoclasts assessed as relative level of Tyr530 phosphorylated c-Src/beta actin at 17 uM after 15 mins in presence of M-CSF/RANKL by Western blot method relative to control. On the technique in general: In western blotting, separated proteins are transferred to a membrane and probed.

Activity calls are given as the source filed them. No cut-off for these calls is given here.

T1 sequence (P23469 whole entry): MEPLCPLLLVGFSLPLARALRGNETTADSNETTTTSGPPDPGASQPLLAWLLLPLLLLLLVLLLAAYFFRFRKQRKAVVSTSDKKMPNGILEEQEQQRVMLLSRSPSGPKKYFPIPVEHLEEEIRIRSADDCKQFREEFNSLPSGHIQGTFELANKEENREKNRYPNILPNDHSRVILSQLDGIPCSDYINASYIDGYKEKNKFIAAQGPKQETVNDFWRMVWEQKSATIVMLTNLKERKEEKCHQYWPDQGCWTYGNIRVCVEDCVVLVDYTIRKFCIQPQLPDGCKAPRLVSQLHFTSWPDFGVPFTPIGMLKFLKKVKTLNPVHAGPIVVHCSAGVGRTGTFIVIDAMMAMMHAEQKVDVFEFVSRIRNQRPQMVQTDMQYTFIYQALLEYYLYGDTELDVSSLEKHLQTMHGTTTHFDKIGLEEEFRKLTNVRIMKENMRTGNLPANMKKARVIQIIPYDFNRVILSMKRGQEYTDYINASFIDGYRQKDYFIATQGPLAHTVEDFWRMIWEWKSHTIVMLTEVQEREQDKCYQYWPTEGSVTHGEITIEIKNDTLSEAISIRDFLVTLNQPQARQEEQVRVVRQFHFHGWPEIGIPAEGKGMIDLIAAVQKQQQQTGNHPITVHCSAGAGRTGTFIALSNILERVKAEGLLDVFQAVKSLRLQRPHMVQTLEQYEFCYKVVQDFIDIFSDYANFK

In the case of `O=C(COc1ccc2c(c1)OCO2)Nc1nnc(COc2ccc(Cl)cc2)s1`, in data set [1], the IC50 was 2.01 µM.
On to `CCC(C)c1ccc(OCc2nnc(NC(=O)Nc3ccccc3OC)s2)cc1` (stereo not given), for which, in data set [1], the IC50 was 4.17 µM.
Consider `Cc1ccc(OCc2nnc(NC(=O)Nc3ccc(F)c(Cl)c3)s2)c(C)c1`, for which the IC50 in data set [1] turned out to be 1.86 µM. Besides, in the data set with Monocyte, the inhibition result is “Dose-dependent effect”. The Activity entry in the data set with Osteoclast [2] is listed as “Non-Toxic”. For the same compound, the inhibition entry in data set [3] was “Active”. Moreover, the “fold change (FC)” value was determined as 1.29 with Osteoclast [4] and 1.57 in data set [5].
Consider `Cc1ccc(NC(=O)Nc2nnc(COc3ccc(C)cc3C)s2)cc1`, for which the IC50 in data set [1] was found to be 2.47 µM. For the same compound, the inhibition entry in the data set on Monocyte was “Dose-dependent effect”. The Activity entry in the data set on Osteoclast [2] is “Non-Toxic”. In data set [3], the inhibition result was “Active”. Moreover, the results for the “fold change (FC)” value (with Osteoclast [4]; in data set [5]) were 1.12 and 1.87, respectively.
As for `COc1ccccc1OCC(=O)Nc1nnc(COc2ccccc2)s1`, the IC50 in data set [1] was 3.7 µM.

As a reminder, the IC50 is the point on the concentration scale where inhibition reaches its midpoint.
